From patent publication US20260240827A1, “PALATABLE LIQUID SOLUTION CONTAINING HIGH CONCENTRATION OF MIGLUSTAT” (THERANEXUS, priority 2022, published 2026)

Key:
[1] = Drug excipient compatibility: physical description after storage; type: physicochemical; details: up to 4 weeks 40° C./75% RH and 25° C./60% RH, 60° C. 1 week
Protocol: This study was conducted to assess the compatibility of miglustat with excipient candidates that can be used in the liquid Miglustat product. Each different excipient was manually stirred with miglustat and stored into amber glass vials.
Vials were stored in climatic chambers with different environmental conditions: 25° C./60% RH, 40° C./75% RH and 60° C. for up to 4 weeks, in closed containers. (RH=relative humidity)
After the defined storage time, samples were exited from the climatic chambers. Operators observed the solution and described the appearance of the solution by visual inspection.

[2] = ambient temperature; cited from earlier work

| SMILES | Compatibility of excipient with Miglustat in binary mixture (DEC study conclusion) [1] | Solubility in water [2] |
| --- | --- | --- |
| CC1=CC(=O)NS(=O)(=O)O1 [Acesulfame Potassium] | not compatible | – |
| Cl [Hydrochloric acid] | not compatible | – |
| CCCCN1C[C@H](O)[C@@H](O)[C@H](O)[C@H]1CO [Miglustat, 1,5-(butylimino)-1,5-dideoxy-D-glucitol] | – | > 1000 mg/mL |
| O=C([O-])c1ccccc1.[Na+] [Sodium Benzoate, sodium salt of benzoic acid] | compatible | – |

Continued, in another order:

| Compatibility of excipient with Miglustat in binary mixture (DEC study conclusion) [1] | SMILES | Solubility in water [2] |
| --- | --- | --- |
| compatible | O=C(O)C(O)C(O)C(=O)O (stereo not drawn) [Tartaric acid, 2,3-Dihydroxybutanedioic acid] | – |
| not compatible | O=C1O[C@H]([C@@H](O)CO)C(O)=C1O [ascorbic acid] | – |
